Test results as given in patent US5674979A, “Agent for inhibiting symmetrical proteins, in particular enzymes” (priority 1989, dated 1997).
Where two headings read alike, the source gives them in different places. Residues, ends and D or L forms follow the SMILES beside them. *: point of attachment. ClAc = O=C(CCl)*

Tests used:
H9 cells = assay: Cytotoxicity for H9 cells, trypan blue colouration; type: cell-based; details: culture with inhibitor but no virus, 0.1 μM to 1000 μM
HIV-1 [1] = details: H9 cells
Description: Compounds (a), (b), (c), (d) were tested in the molarity range from 0.1 μM to 1000 μM. Infectivity tests were carried out as follows: an HIV-1 suspension containing 10^2 infectious units was absorbed on to 5×10^6 H9 cells in a volume of 1 ml for 2 hours at 4° C. After this time, 9 ml of tissue culture medium with the required inhibitor concentration was added. The medium was exchanged with fresh medium plus inhibitor daily. Two control cultures were also prepared, one without inhibitor to determine the normal virus replication rate, the other containing inhibitor but no virus, to determine whether the substances were cytotoxic for H9 cells. […] The amount of virus antigen produced by the infected cells was measured daily using Elisa for eight days, indicating the amount of HIV-1 antigen in the tissue culture medium. After this, the cells were pelleted, washed in medium without inhibitor, and further incubated in inhibitor-less medium. The antigen production was measured on days 9 and 12 (ie 1 and […] after removal of the inhibitor). Virus production was also measured on days 7, 8, 9, and 12 by determining the amount of reverse transcriptase in the supernatant of the cell medium.

HIV-1 [2] = tested on: HIV-1
[3] = 0,1 μM, day 9 post infection, no inhibitor (after removal)
[4] = 0,1 μM, day 12 post infection, no inhibitor (after removal)
[5] = 1 μM, day 9 post infection, no inhibitor (after removal)
[6] = 1 μM, day 12 post infection, no inhibitor (after removal)
[7] = 10 μM, day 9 post infection, no inhibitor (after removal)
[8] = 10 μM, day 12 post infection, no inhibitor (after removal)
[9] = 100 μM, day 9 post infection, no inhibitor (after removal)
[10] = 100 μM, day 12 post infection, no inhibitor (after removal)
[11] = 1000 μM, day 9 post infection, no inhibitor (after removal)
[12] = 1000 μM, day 12 post infection, no inhibitor (after removal)

`CC[C@H](C)[C@H](NC(=O)[C@@H]1CCCN1C(=O)[C@H](Cc1ccccc1)NC(=O)[C@H](C)NC(=O)CNC(=O)CCl)C(=O)N[C@@H](C)C(=O)O` [C, Cl--CH2 --CO-Gly-Ala-Phe-Pro-Ile-Ala-OH] (ClAc-GAFPIA-OH) was tested, and the “cytotoxic effect for H9 cells, colouration with trypan blue” value (H9 cells) was “no cytotoxic effect”, the “HIV-1 antigen production as measured in antigen capture ELISA” value (“HIV-1 antigen production as measured” below) (HIV-1 [1]; 0,1 μM, day 1 post infection) was 0,062 o. D and the “HIV-1 antigen production as measured” value (HIV-1 [1]; 0,1 μM, day 2 post infection) was 0,069 o. D. The “HIV-1 antigen production as measured” value (HIV-1 [1]; 0,1 μM, day 3 post infection) was 0,055 o. D, the “HIV-1 antigen production as measured” value (HIV-1 [1]; 0,1 μM, day 4 post infection) was 0,052 o. D and the “HIV-1 antigen production as measured” value (HIV-1 [1]; 0,1 μM, day 5 post infection) was 0,054 o. D. For the same compound, the “HIV-1 antigen production as measured” value (HIV-1 [1]; 0,1 μM, day 6 post infection) was 0,105 o. D, the “HIV-1 antigen production as measured” value (HIV-1 [1]; 0,1 μM, day 7 post infection) was 0,276 o. D and the “HIV-1 antigen production as measured” value (HIV-1 [1]; 0,1 μM, day 8 post infection) was 0,336 o. D. The “HIV-1 antigen production as measured” value (HIV-1 [1]; [3]) was 0,588 o. D, the “HIV-1 antigen production as measured” value (HIV-1 [1]; [4]) was 1,010 o. D and the “HIV-1 antigen production as measured” value (HIV-1 [1]; 1 μM, day 1 post infection) was 0,061 o. D. For the same compound, the “HIV-1 antigen production as measured” value (HIV-1 [1]; 1 μM, day 2 post infection) was 0,054 o. D, the “HIV-1 antigen production as measured” value (HIV-1 [1]; 1 μM, day 3 post infection) was 0,060 o. D and the “HIV-1 antigen production as measured” value (HIV-1 [1]; 1 μM, day 4 post infection) was 0,050 o. D. For the same compound, the “HIV-1 antigen production as measured” value (HIV-1 [1]; 1 μM, day 5 post infection) was 0,051 o. D, the “HIV-1 antigen production as measured” value (HIV-1 [1]; 1 μM, day 6 post infection) was 0,133 o. D and the “HIV-1 antigen production as measured” value (HIV-1 [1]; 1 μM, day 7 post infection) was 0,267 o. D. For the same compound, the “HIV-1 antigen production as measured” value (HIV-1 [1]; 1 μM, day 8 post infection) was 0,239 o. D, the “HIV-1 antigen production as measured” value (HIV-1 [1]; [5]) was 0,808 o. D and the “HIV-1 antigen production as measured” value (HIV-1 [1]; [6]) was 1,042 o. D. The “HIV-1 antigen production as measured” value (HIV-1 [1]; 10 μM, day 1 post infection) was 0,069 o. D, the “HIV-1 antigen production as measured” value (HIV-1 [1]; 10 μM, day 2 post infection) was 0,048 o. D and the “HIV-1 antigen production as measured” value (HIV-1 [1]; 10 μM, day 3 post infection) was 0,066 o. D. The “HIV-1 antigen production as measured” value (HIV-1 [1]; 10 μM, day 4 post infection) was 0,064 o. D, the “HIV-1 antigen production as measured” value (HIV-1 [1]; 10 μM, day 5 post infection) was 0,049 o. D and the “HIV-1 antigen production as measured” value (HIV-1 [1]; 10 μM, day 6 post infection) was 0,099 o. D. The “HIV-1 antigen production as measured” value (HIV-1 [1]; 10 μM, day 7 post infection) was 0,228 o. D, the “HIV-1 antigen production as measured” value (HIV-1 [1]; 10 μM, day 8 post infection) was 0,292 o. D and the “HIV-1 antigen production as measured” value (HIV-1 [1]; [7]) was 0,643 o. D. For the same compound, the “HIV-1 antigen production as measured” value (HIV-1 [1]; [8]) was 1,040 o. D, the “HIV-1 antigen production as measured” value (HIV-1 [1]; 100 μM, day 1 post infection) was 0,064 o. D and the “HIV-1 antigen production as measured” value (HIV-1 [1]; 100 μM, day 2 post infection) was 0,056 o. D. The “HIV-1 antigen production as measured” value (HIV-1 [1]; 100 μM, day 3 post infection) was 0,062 o. D, the “HIV-1 antigen production as measured” value (HIV-1 [1]; 100 μM, day 4 post infection) was 0,053 o. D and the “HIV-1 antigen production as measured” value (HIV-1 [1]; 100 μM, day 5 post infection) was 0,061 o. D. The “HIV-1 antigen production as measured” value (HIV-1 [1]; 100 μM, day 6 post infection) was 0,100 o. D, the “HIV-1 antigen production as measured” value (HIV-1 [1]; 100 μM, day 7 post infection) was 0,265 o. D and the “HIV-1 antigen production as measured” value (HIV-1 [1]; 100 μM, day 8 post infection) was 0,296 o. D. The “HIV-1 antigen production as measured” value (HIV-1 [1]; [9]) was 0,787 o. D, the “HIV-1 antigen production as measured” value (HIV-1 [1]; [10]) was 0,940 o. D and the “HIV-1 antigen production as measured” value (HIV-1 [1]; 1000 μM, day 1 post infection) was 0,071 o. D. The “HIV-1 antigen production as measured” value (HIV-1 [1]; 1000 μM, day 2 post infection) was 0,053 o. D, the “HIV-1 antigen production as measured” value (HIV-1 [1]; 1000 μM, day 3 post infection) was 0,061 o. D and the “HIV-1 antigen production as measured” value (HIV-1 [1]; 1000 μM, day 4 post infection) was 0,057 o. D. The “HIV-1 antigen production as measured” value (HIV-1 [1]; 1000 μM, day 5 post infection) was 0,123 o. D, the “HIV-1 antigen production as measured” value (HIV-1 [1]; 1000 μM, day 6 post infection) was 0,096 o. D and the “HIV-1 antigen production as measured” value (HIV-1 [1]; 1000 μM, day 7 post infection) was 0,415 o. D. For the same compound, the “HIV-1 antigen production as measured” value (HIV-1 [1]; 1000 μM, day 8 post infection) was 0,778 o. D, the “HIV-1 antigen production as measured” value (HIV-1 [1]; [11]) was 1,019 o. D and the “HIV-1 antigen production as measured” value (HIV-1 [1]; [12]) was 1,000 o. D. For the same compound, the “Reverse Transkriptase Determination” value (HIV-1 [2]; 0,1 μM, day 7 post infection) was 5561 epm/ml, the “Reverse Transkriptase Determination” value (HIV-1 [2]; 0,1 μM, day 8 post infection) was 2314 epm/ml and the “Reverse Transkriptase Determination” value (HIV-1 [2]; [3]) was 7477 epm/ml. For the same compound, the “Reverse Transkriptase Determination” value (HIV-1 [2]; [4]) was 113340 epm/ml, the “Reverse Transkriptase Determination” value (HIV-1 [2]; 1 μM, day 7 post infection) was 4575 epm/ml and the “Reverse Transkriptase Determination” value (HIV-1 [2]; 1 μM, day 8 post infection) was 3198 epm/ml. For the same compound, the “Reverse Transkriptase Determination” value (HIV-1 [2]; [5]) was 4186 epm/ml, the “Reverse Transkriptase Determination” value (HIV-1 [2]; [6]) was 164240 epm/ml and the “Reverse Transkriptase Determination” value (HIV-1 [2]; 10 μM, day 7 post infection) was 5358 epm/ml. For the same compound, the “Reverse Transkriptase Determination” value (HIV-1 [2]; 10 μM, day 8 post infection) was 4398 epm/ml, the “Reverse Transkriptase Determination” value (HIV-1 [2]; [7]) was 8823 epm/ml and the “Reverse Transkriptase Determination” value (HIV-1 [2]; [8]) was 158800 epm/ml. For the same compound, the “Reverse Transkriptase Determination” value (HIV-1 [2]; 100 μM, day 7 post infection) was 3838 epm/ml, the “Reverse Transkriptase Determination” value (HIV-1 [2]; 100 μM, day 8 post infection) was 6370 epm/ml and the “Reverse Transkriptase Determination” value (HIV-1 [2]; [9]) was 8860 epm/ml. The “Reverse Transkriptase Determination” value (HIV-1 [2]; [10]) was 96780 epm/ml, the “Reverse Transkriptase Determination” value (HIV-1 [2]; 1000 μM, day 7 post infection) was 7646 epm/ml and the “Reverse Transkriptase Determination” value (HIV-1 [2]; 1000 μM, day 8 post infection) was 4308 epm/ml. The “Reverse Transkriptase Determination” value (HIV-1 [2]; [11]) was 5343 epm/ml and the “Reverse Transkriptase Determination” value (HIV-1 [2]; [12]) was 107640 epm/ml.
